{
  "source": "patent US5602106A",
  "about": "“16-membered macrolide derivatives” (priority 1993, dated 1997)",
  "key": {"[1]": {"system": "B. catarrhalis W-0400", "assay": "MIC, agar plate dilution method", "assay_type": "cell-based", "details": "Moraxella catarrhalis, W0400, 20 h, read-out: Antimicrobial activity (MIC)", "protocol": "(§1) The effect of the first aspect of the present invention resides in the creation of a novel and useful 16-membered macrolide derivative. Antimicrobial activities of the compounds of the present invention were determined by measuring minimum inhibitory concentration (MIC). Minimum inhibitory concentration was determined by the agar plate dilution method in the following manner.\n(§2) Test strains were subjected to seed culture using Sensitivity test broth (STB, Nissui Pharmaceutical) except that the strains belonging to the genus Streptococcus, Branhamella and Haemophilus were cultured on blood agar plate. A 5 μl portion of cell suspension of the test strains having about 10^6 CFU/ml was inoculated into Sensitivity disk agar (SDA, Nissui Pharmaceutical) supplemented with 5% horse blood and incubated at 37° C. for 20 hours. Then, MIC was measured. […] Antimicrobial activities in vitro of the compounds (1) and (2) are shown in Table 1, and those of the compounds (3) and (4) in Table 3."}, "[2]": {"system": "E. coli NIHJ JC-2", "assay": "MIC, agar plate dilution method", "assay_type": "cell-based", "details": "Escherichia coli, NIHJJC2, 20 h, 37° C., SDA with 5% horse blood, read-out: Antimicrobial activity (MIC)", "protocol": "as §1, §2"}, "[3]": {"system": "E. faecalis W-73", "assay": "MIC, agar plate dilution method", "assay_type": "cell-based", "details": "Enterococcus faecalis, W73, 20 h, read-out: Antimicrobial activity (MIC)", "protocol": "as §1, §2"}, "[4]": {"system": "H. influenzae 9334", "assay": "MIC, agar plate dilution method", "assay_type": "cell-based", "protocol": "as §1, §2"}, "[5]": {"system": "H. influenzae Type b", "assay": "MIC, agar plate dilution method", "assay_type": "cell-based", "protocol": "as §1, §2"}, "[6]": {"system": "K. pneumoniae PCI602", "assay": "MIC, agar plate dilution method", "assay_type": "cell-based", "details": "Klebsiella pneumoniae, PCI602, 20 h, 37° C., SDA with 5% horse blood, read-out: Antimicrobial activity (MIC)", "protocol": "as §1, §2"}, "[7]": {"system": "M. luteus ATCC9341", "assay": "MIC, agar plate dilution method", "assay_type": "cell-based", "details": "Micrococcus luteus, ATCC9341; 37° C., 20 hours, SDA with 5% horse blood; read-out: Antimicrobial activity (MIC)", "protocol": "as §1, §2"}, "[8]": {"system": "S. aureus 209P JC-1", "assay": "MIC, agar plate dilution method", "assay_type": "cell-based", "protocol": "as §1, §2"}, "[9]": {"system": "S. aureus M126", "assay": "MIC, agar plate dilution method", "assay_type": "cell-based", "details": "Staphylococcus aureus, 37° C., 20 hours, SDA with 5% horse blood, read-out: Antimicrobial activity (MIC)", "protocol": "as §1, §2"}, "[10]": {"system": "S. aureus M133", "assay": "MIC, agar plate dilution method", "assay_type": "cell-based", "protocol": "as §1, §2"}, "[11]": {"system": "S. aureus MS15009/pMS98", "assay": "MIC, agar plate dilution method", "assay_type": "cell-based", "protocol": "as §1, §2"}, "[12]": {"system": "S. aureus MS15009/pMS99", "assay": "MIC, agar plate dilution method", "assay_type": "cell-based", "details": "Staphylococcus aureus, MS15009/PMS99, 20 h, read-out: Antimicrobial activity (MIC)", "protocol": "as §1, §2"}, "[13]": {"system": "S. aureus MS15026", "assay": "MIC, agar plate dilution method", "assay_type": "cell-based", "details": "Staphylococcus aureus, 37° C., 20 hours, SDA with 5% horse blood, read-out: Antimicrobial activity (MIC)", "protocol": "as §1, §2"}, "[14]": {"system": "S. aureus MS15027", "assay": "MIC, agar plate dilution method", "assay_type": "cell-based", "details": "Staphylococcus aureus, MS15027, 20 h, read-out: Antimicrobial activity (MIC), 37° C., 20 hours, SDA with 5% horse blood", "protocol": "as §1, §2"}, "[15]": {"system": "S. epidermidis ATCC14990", "assay": "MIC, agar plate dilution method", "assay_type": "cell-based", "details": "Staphylococcus epidermidis, ATCC14990, 20 h, read-out: Antimicrobial activity (MIC), 37° C., 20 hours, SDA with 5% horse blood", "protocol": "as §1, §2"}, "[16]": {"system": "S. pneumoniae IP692", "assay": "MIC, agar plate dilution method", "assay_type": "cell-based", "protocol": "as §1, §2"}, "[17]": {"system": "S. pneumoniae Type 1", "assay": "MIC, agar plate dilution method", "assay_type": "cell-based", "protocol": "as §1, §2"}, "[18]": {"system": "S. pyogenes Cook", "assay": "MIC, agar plate dilution method", "assay_type": "cell-based", "details": "Streptococcus pyogenes", "protocol": "as §1, §2"}, "[19]": {"details": "literature; cited from earlier work"}, "[20]": {"system": "test strains", "assay": "Antimicrobial activity in vitro, test strains overall", "assay_type": "cell-based", "protocol": "as §1, §2"}, "[21]": {"system": "Streptococcus pneumoniae DP-1 Type 1", "assay": "Infection-treating test in mice", "assay_type": "in vivo", "from_the_text": "The compounds represented by the formula (I) exert excellent in vivo effects in infection-treating tests in mice in comparison with the case of currently known 16-membered macrolide antimicrobial agents. […] Such an excellent effect is related not to the ester bonding of the tertiary hydroxyl group at the 3\"-position with an acyl group but directly to its ether bonding with a methyl group. […] In this connection, it has been reported that an isovaleryl group linked to a hydroxyl group at the 4\"-position cannot easily be cleaved in rat blood plasma when compared with a propionyl group [Yakugaku Zasshi, 102(8), 781 (1982)]."}, "[22]": {"details": "37° C., 20 hours, SDA with 5% horse blood"}},
  "note": "Like-named read-outs stand apart in the source and are kept apart here.",
  "data": [
    {"smiles": "CCCC(=O)O[C@H]1[C@H](C)O[C@@H](O[C@H]2[C@H](N(C)C)[C@@H](O)[C@H](O[C@H]3[C@@H](CC=O)C[C@@H](C)[C@@H](O)/C=C/C=C/C[C@@H](C)OC(=O)C[C@@H](O)[C@@H]3OC)O[C@@H]2C)C[C@@]1(C)OC(=O)CC", "note": "[RKM, rokitamycin, reference compound]", "values": [
      {"measurement": "MIC", "setting": "[1]", "value": 0.39, "unit": "µg/mL"},
      {"measurement": "MIC", "setting": "[2]", "value": "> 100", "unit": "µg/mL"},
      {"measurement": "MIC", "setting": "[3]; [22]", "value": 1.56, "unit": "µg/mL"},
      {"measurement": "MIC", "setting": "[3]", "value": 0.39, "unit": "µg/mL"},
      {"measurement": "MIC", "setting": "[4]; Haemophilus influenzae, 9334, 20 h, read-out: Antimicrobial activity (MIC), 37° C., 20 hours, SDA with 5% horse blood", "value": 6.25, "unit": "µg/mL"},
      {"measurement": "MIC", "setting": "[4]; Haemophilus influenzae, 9334, 37° C., 20 hours, SDA with 5% horse blood, read-out: Antimicrobial activity (MIC)", "value": 1.56, "unit": "µg/mL"},
      {"measurement": "Antimicrobial activity (MIC)", "setting": "[5]; [22]", "value": 12.5, "unit": "µg/mL"},
      {"measurement": "MIC", "setting": "[5]; Haemophilus influenzae, 20 h, read-out: Antimicrobial activity (MIC), 37° C., 20 hours, SDA with 5% horse blood", "value": 6.25, "unit": "µg/mL"},
      {"measurement": "MIC", "setting": "[6]", "value": "> 100", "unit": "µg/mL"},
      {"measurement": "MIC", "setting": "[7]", "value": 0.05, "unit": "µg/mL"},
      {"measurement": "Antimicrobial activity (MIC)", "setting": "[8]; [22]", "value": 0.20, "unit": "µg/mL"},
      {"measurement": "MIC", "setting": "[8]; Staphylococcus aureus, 209P, 20 h, read-out: Antimicrobial activity (MIC), 37° C., 20 hours, SDA with 5% horse blood", "value": 0.1, "unit": "µg/mL"},
      {"measurement": "MIC", "setting": "[9]", "value": "> 100", "unit": "µg/mL"},
      {"measurement": "Antimicrobial activity (MIC)", "setting": "[10]; [22]", "value": 0.78, "unit": "µg/mL"},
      {"measurement": "MIC", "setting": "[10]; Staphylococcus aureus, M133, 20 h, read-out: Antimicrobial activity (MIC), 37° C., 20 hours, SDA with 5% horse blood", "value": 0.39, "unit": "µg/mL"},
      {"measurement": "Antimicrobial activity (MIC)", "setting": "[11]; [22]", "value": 0.78, "unit": "µg/mL"},
      {"measurement": "MIC", "setting": "[11]; Staphylococcus aureus, MS15009/PMS98, 20 h, read-out: Antimicrobial activity (MIC), 37° C., 20 hours, SDA with 5% horse blood", "value": 0.39, "unit": "µg/mL"},
      {"measurement": "MIC", "setting": "[12]", "value": "> 100", "unit": "µg/mL"},
      {"measurement": "MIC", "setting": "[13]", "value": "> 100", "unit": "µg/mL"},
      {"measurement": "MIC", "setting": "[14]", "value": 0.78, "unit": "µg/mL"},
      {"measurement": "MIC", "setting": "[15]", "value": 0.78, "unit": "µg/mL"},
      {"measurement": "Antimicrobial activity (MIC)", "setting": "[16]; [22]", "value": 0.20, "unit": "µg/mL"},
      {"measurement": "MIC", "setting": "[16]; Streptococcus pneumoniae, IP692, 20 h, read-out: Antimicrobial activity (MIC), 37° C., 20 hours, SDA with 5% horse blood", "value": 0.1, "unit": "µg/mL"},
      {"measurement": "Antimicrobial activity (MIC)", "setting": "[17]; [22]", "value": 0.20, "unit": "µg/mL"},
      {"measurement": "MIC", "setting": "[17]; Streptococcus pneumoniae, TYPE1, 20 h, read-out: Antimicrobial activity (MIC), 37° C., 20 hours, SDA with 5% horse blood", "value": 0.1, "unit": "µg/mL"},
      {"measurement": "MIC", "setting": "[18]; 20 h, read-out: Antimicrobial activity (MIC), 37° C., 20 hours, SDA with 5% horse blood", "value": 0.2, "unit": "µg/mL"},
      {"measurement": "MIC", "setting": "[18]; 37° C., 20 hours, SDA with 5% horse blood, read-out: Antimicrobial activity (MIC)", "value": 0.05, "unit": "µg/mL"},
      {"measurement": "metabolism and loss of antimicrobial activity after oral administration", "setting": "[19]", "value": "an acyl group of a neutral sugar moiety of the administered drug is cleaved with time and antimicrobial activities of the drug itself therefore is reduced gradually"}
    ]},
    {"smiles": "CCC(=O)O[C@@H]1CC(=O)O[C@H](C)C/C=C/C=C/[C@H](OC(C)=O)[C@H](C)C[C@H](CC=O)[C@H](O[C@@H]2O[C@H](C)[C@@H](O[C@H]3C[C@@](C)(OC)[C@@H](OC(=O)CC)[C@H](C)O3)[C@H](N(C)C)[C@H]2O)[C@H]1OC", "note": "[(5), 9-O-acetyl-3\"-O-methylmidecamycin A1]", "values": [
      {"measurement": "antimicrobial activities compared with starting materials (1), (2) and (33)", "setting": "[20]; 9-O-acylated vs free 9-hydroxyl", "value": "strong antimicrobial activities by themselves though slightly lower than those of their starting materials"},
      {"measurement": "antimicrobial activities in vitro compared with miokamycin", "setting": "[20]; vs miokamycin (MOM)", "value": "comparable to or higher"},
      {"measurement": "amount giving a coordinate infection-treating effect relative to miokamycin", "setting": "[21]; fraction of miokamycin amount", "value": "1/4"},
      {"measurement": "amount giving a coordinate infection-treating effect relative to rokitamycin", "setting": "[21]; fraction of rokitamycin amount", "value": "1/8"}
    ]}
  ]
}
